Results reported in patent publication US8962624B2, “Morpholines as selective inhibitors of cytochrome P450 2A13” (University of Kansas, priority 2007, dated 2015).
Values joined by “and” are separate entries in the source; they are usually repeats but may differ in a detail not shown here. Equal entries are not always repeated. Structures can show the parent of a compound that is named as a salt. Where two headings read alike, the source gives them in different places.

Assays:
[1] = biological target: T1, CYP2A13 (Homo sapiens, UniProt Q16696); test: Spectral shift ligand binding titration (cuvette method) with purified CYP2A13dH; conditions: for Selectivity 2A6 Kd/2A13 Kd: (CYP2A6 Kd)/(CYP2A13 Kd), higher numbers are more selective
T1 construct: truncation of the non-catalytic N-terminal transmembrane helix and addition of a C-terminal 4× histidine tag; 4xHis (C); made in house; host or cells: E. coli
T1 sequence (Q16696 with tags, fused parts or gaps limits assumed): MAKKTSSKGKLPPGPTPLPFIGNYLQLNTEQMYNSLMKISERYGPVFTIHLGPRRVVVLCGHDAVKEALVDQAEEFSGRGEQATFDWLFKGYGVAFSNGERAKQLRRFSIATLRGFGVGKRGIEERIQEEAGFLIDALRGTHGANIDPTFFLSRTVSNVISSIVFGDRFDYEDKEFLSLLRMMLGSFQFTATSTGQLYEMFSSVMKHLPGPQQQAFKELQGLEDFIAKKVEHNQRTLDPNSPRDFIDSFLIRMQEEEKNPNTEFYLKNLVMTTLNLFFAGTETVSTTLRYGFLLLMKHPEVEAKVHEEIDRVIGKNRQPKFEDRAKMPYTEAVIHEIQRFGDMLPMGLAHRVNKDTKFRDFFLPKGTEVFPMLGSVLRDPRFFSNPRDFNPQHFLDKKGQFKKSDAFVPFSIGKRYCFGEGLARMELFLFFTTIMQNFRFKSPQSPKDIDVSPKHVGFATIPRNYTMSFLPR
Source text: (§1) To date, virtually all attempts to characterize full-length mammalian cytochromes P450 have been restricted by the production of only small (nanomolar) amounts of protein. However, truncation of the non-catalytic N-terminal transmembrane helix and addition of a C-terminal 4× histidine tag allow us to recombinantly produce tens of milligrams of highly purified modified CYP2A13 and CYP2A6 proteins per liter of E. coli culture. These engineered versions of the proteins (CYP2A13dH and CYP2A6dH are not shown) are fully functional in both binding ligands and metabolism of substrates. Protein expression in E. coli is initiated with the addition of IPTG to media supplemented with the heme precursor aminolevulinic acid. After 48-72 hours this expression system yields approximately 500-1300 nmol (27-71 mg) of CYP2A13dH or CYP2A6dH per liter of bacterial culture. Briefly, P450 proteins are liberated from E, coli membranes using a specialized detergent and high salt conditions and subsequently purified using metal-affinity and carboxymethyl-sepharose (CM-sepharose) affinity chromatography. Overall purification yield is up to 14 mg of highly purified protein per liter of E. coli culture.
(§2) Cytochrome P4502A13dH was expressed and purified as previously described (J. Biol. Chem. (2007), 282(23)17306-17313). Briefly, CYP2A13 was solubilized from the membrane using 4.8 mM Cymal-5 detergent (Anatrace, Maumee, Ohio) and 0.3M NaCl followed by ultracentrifugation at 30,000 rpm for 60 minutes. The solubilized protein was applied to Ni^2+-agarose resin (Qiagen, Valencia, Calif.) and after extensive washing with Buffer A (0.1M potassium phosphate, pH 7.4, 20% glycerol, 0.2M sodium chloride, 4.8 mM cymal, 8 mM histidine), the protein was eluted using Buffer B (Buffer A containing 2 mM EDTA and 80 mM histidine). The fractions containing protein with absorbance at 415 nm were pooled, diluted 5-fold with Buffer C (5 mM potassium phosphate, pH 7.4, 20% glycerol, 4.8 mM Cymal-5), and loaded onto HiTrap CM-FF column. The column was washed extensively with Buffer C without the detergent. Purified CYP2A13 was eluted using Buffer C with 50 mM potassium phosphate and 500 mM NaCl. An average yield of 14 mgs of CYP2A13 was obtained per liter of E. coli culture, Cytochrome P4502A6dH was similarly prepared.
(§3) The UV/visible spectra of purified CYP2A13dH and CYP2A6dH have a Soret peak at 418 nm, indicative of a low-spin, six-coordinate configuration of the heme iron bound to an active site water molecule (FIG. 1A). When ligands bind in the active site they frequently displace the water from the iron, resulting in a shift to five-coordinate, high spin iron with a maximal absorbance 395 nm. For cytochrome P450 enzymes, one often records the spectrum shift that occurs as protein is titrated with ligand to determine ligand affinity (kd values) (FIG. 1B).
(§4) The compounds that induced spectral shifts close to that of the positive control (PEITC) were validated in the spectral shift assay using the low throughput cuvette method. CYP2A13 protein samples were diluted to a concentration of 1 μM in 100 mM potassium phosphate buffer (pH 7.4) and were divided equally between reference and sample 1 mL quartz cuvettes. Concentrated compound stocks were prepared in 100% DMSO and the sample baseline was taken from 300-500 nm before beginning the titration. Substrate was added to the sample cuvette, mixed, and allowed to equilibrate for 2 minutes. An equal amount of ethanol was added to the reference cuvette for every addition of compound stock to the sample. The total amount of ethanol was kept less than 2% for each titration. After each coumarin addition, difference spectra were recorded from 300-500 nm and the change maximum (˜420 nm) to the minimum (˜385 nm) was determined. Graphpad Prism 4 (Graphpad Software, San Diego, Calif.) was used to determine the Ks and ΔAmax with nonlinear least-squares regression fitting to the equation: […]

[2] = biological target: T2, CYP2A6 (Homo sapiens, UniProt P11509); test: Spectral shift ligand binding titration with purified CYP2A6dH; conditions: for 2A6 Av. Kd / Kd: Table 1, average Kd; for Kd: read-out: 2A6 Av. Kd; for binding to CYP2A6 in titration / spectral shift with CYP2A6: result in words
T2 construct: truncation of the non-catalytic N-terminal transmembrane helix and addition of a C-terminal 4× histidine tag; 4xHis (C); made in house; host or cells: E. coli
T2 sequence (P11509 with tags, fused parts or gaps limits assumed): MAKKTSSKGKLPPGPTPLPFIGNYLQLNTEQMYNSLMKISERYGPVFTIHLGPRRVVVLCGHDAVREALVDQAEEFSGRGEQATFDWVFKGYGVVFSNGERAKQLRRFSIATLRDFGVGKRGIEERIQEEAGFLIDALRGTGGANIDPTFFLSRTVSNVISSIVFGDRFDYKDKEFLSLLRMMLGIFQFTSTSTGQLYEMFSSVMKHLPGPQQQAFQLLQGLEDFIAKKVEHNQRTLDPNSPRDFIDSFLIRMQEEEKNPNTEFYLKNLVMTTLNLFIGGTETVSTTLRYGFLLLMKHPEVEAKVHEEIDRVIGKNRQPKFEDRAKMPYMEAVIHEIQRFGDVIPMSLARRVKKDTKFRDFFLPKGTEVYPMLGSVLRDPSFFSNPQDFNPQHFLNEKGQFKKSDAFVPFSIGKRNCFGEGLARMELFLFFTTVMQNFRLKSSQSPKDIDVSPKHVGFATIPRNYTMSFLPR
Source text: as §1, §2, §3, §4

[3] = Table 1, average Kd, read-out: 2A13 Av. Kd
[4] = multiple titrations, read-out: average Kd for CYP2A13
[5] = initial characterisation of the hits, read-out: initial Kd values, CYP2A13

Compound | Selectivity 2A6 Kd/2A13 Kd [1] | Kd [1, 3] [µM] | 2A6 Av. Kd [2] | Kd [2] [µM] | Kd [1, 4] | binding to CYP2A6 in titration [2] | spectral shift with CYP2A6 [2] | Kd ([1]; Table 2, unit inferred, read-out: 2A13 Kd) [µM] | Kd [1, 5] [µM] | Kd ([1]; text b152, unit inferred, multiple titrations, read-out: average Kd) [µM]
Fc1ccccc1CN1CCOCC1 [Compound 5, 4-(2-fluorobenzyl)morpholine] | high | 72.5 | No binding | – | – | – | – | – | – | –
Brc1ccccc1CN1CCOCC1 [Compound 4, 4-(2-bromobenzyl)morpholine] | high | 7 | No binding | – | – | – | – | – | – | –
Fc1cccc(Cl)c1CN1CCOCC1 [Compound 2, 4-(2-chloro-6-fluorobenzyl)morpholine] | high | – | No binding | – | ~5.8 µM and 5.8 µM | no binding | absolutely no spectral shift | – | – | –
Clc1cccc(CN2CCOCC2)c1Cl [Compound 7, 4-(2,3-dichlorobenzyl)morpholine] | 27 | 28.5 | – | 788 | – | – | – | – | – | –
Clc1ccccc1CN1CCOCC1 [Compound 1, 4-(2-chlorobenzyl)morpholine] | high | – | No binding | – | 7.3 µM | no substantially binding | no spectral shift | – | 1.8 | –
Cc1ccccc1CN1CCOCC1 [Compound 3, 4-(2-methylbenzyl)morpholine] | high | 19.3 | No binding | – | 19.3 µM | no substantially binding | no spectral shift | – | 4 | 19.3
Clc1ccccc1CN1CCSCC1 [Compound 6, 4-(2-chlorobenzyl)thiomorpholine] | 15.5 | 10 | – | 155 | – | – | – | – | – | –

Now from value to compound:

Selectivity 2A6 Kd/2A13 Kd [1] | Kd [1, 3] [µM] | 2A6 Av. Kd [2] | Kd [2] [µM] | Kd [1, 4] | binding to CYP2A6 in titration [2] | spectral shift with CYP2A6 [2] | Kd ([1]; Table 2, unit inferred, read-out: 2A13 Kd) [µM] | Kd [1, 5] [µM] | Kd ([1]; text b152, unit inferred, multiple titrations, read-out: average Kd) [µM] | Compound
12.9 | 37.7 | – | > 486 | – | – | – | – | – | – | 4-(2,3-dichlorobenzyl)-1,6-dimethylmorpholine [Compound 10]
– | – | – | – | – | – | – | 28.8 | – | – | C1CN(C2C3CC4CC(C3)CC2C4)CCO1 (centres unmarked) [Compound 31, 4-(2-adamantyl)morpholine hydrochloride]
291 | 1.9 | – | 553 | – | – | – | – | – | – | Clc1cccc(Cl)c1CN1CCOCC1 [Compound 8, 4-(2,6-dichlorobenzyl)morpholine]
5.66 | 35 | – | 198 | – | – | – | – | – | – | Clc1ccc(CN2CCOCC2)c(Cl)c1 [Compound 9, 4-(2,4-dichlorobenzyl)morpholine]
